The text below walks through data of patent US20020123485A1, “Epoxy steroidal aldosterone antagonist and beta-adrenergic antagonist combination therapy for treatment of congestive heart failure” (priority 2000, published 2002).

SMILES strings stand for the structures.

For data set [1], the system named is myocardial fibrosis in animal models. The conditions noted are these: cited from earlier work.
Data set [2] relates to patients with mild to moderate hypertension. The data set is described as follows: Example 19 clinical study: eplerenone versus placebo co-administered with a calcium-channel blocker. In kind it is in vivo, human.
Excerpt: This multicenter, randomized, double-blind, placebo-controlled, placebo run-in, parallel group trial involving a minimum of 120 randomized patients with hypertension (seated diastolic blood pressure [seDBP] ≧95 mmHg and <110 mmHg and seated systolic BP [seSBP] <180 mmHg while taking a CCB) will consist of a one- to two-week pretreatment screening period followed by a two- to four-week single-blind placebo run-in period and an 8-week double-blind treatment period. Eligible patients will be patients currently receiving a CCB as part of their antihypertensive medication. […] The dose will not be changed for patients with adequate BP control. […] If the dose has been increased at Week 2, the patient will be reassessed at Week 6. […] If BP is uncontrolled at Week 6 and the dose has been increased at Week 2 or Week 4, the patient must be withdrawn from the study. If symptomatic hypotension (i.e., lightheadedness, dizziness, or syncope associated with low BP) occurs at any time during the study, or if DBP is ≧110 mmHg or SBP is ≧180 mmHg at any time during the trial, the patient must be withdrawn. Patients will receive study medication for a total of 8 weeks.
The study will consist of a one- to two-week pretreatment screening period followed by a two- to four-week single-blind placebo run-in treatment period, prior to randomization to an eight-week double-blind treatment period.
Eligible patients will be either currently receiving a CCB alone, or receiving a CCB as part of their antihypertensive medication. […] The dose will not be changed for patients with adequate BP control. […] If the dose has been increased at Week 2, the patient will be reassessed at Week 6. The dose of study medication will not be changed for patients with adequate BP control. […] If BP is uncontrolled at Week 6 and the dose has been increased at Week 2 or Week 4, the patient must be withdrawn from the study. The dose of study medication will not be changed for patients with adequate BP control. If symptomatic hypotension (i.e., lightheadedness, dizziness, or syncope associated with low BP) occurs at any time during the study, or if DBP is ≧110 mmHg or SBP is ≧180 mmHg at any time during the study, the patient must be withdrawn. Patients will receive study medication for a total of eight weeks.
Patients will return to the clinic for evaluations at Weeks 0, 2, 4, 6, 8, and 9. Heart rate, BP, adverse events and concomitant medication will be assessed at each visit. Hematology and biochemistry evaluations and urinalysis for safety will be at Weeks 0, 8, and 9. Serum potassium levels will be determined at Weeks 0, 2, 4, 6, 8, and 9. Plasma renin, serum aldosterone, and plasma cortisol will be determined at Weeks 0 and 8. A 12-lead electrocardiogram and physical examination will be done at screening and at Week 9.
All randomized patients with at least one post-baseline assessment will be included in the efficacy analysis (intent-to-treat population). In each analysis, missing values will be imputed using the last observation carried forward (LOCF) method. The analysis of safety will focus on all randomized patients who took at least one dose of study medication (safety population).
BP evaluations will be analyzed at each visit using two-way analysis of covariance (ANCOVA) with the baseline measurement as the covariate and treatment and center as factors. The response variable will be the change from baseline. […]
In data set [3] the test system is rats with ligated left anterior descending coronary artery. In words: Assay D: myocardial infarction rat model. In kind it is in vivo. The settings on record: combination of beta-adrenergic antagonist and eplerenone versus either component alone; six weeks. The source says:
Male rats are anesthetized and the heart is exteriorized following a left sided thoracotomy. The left anterior descending coronary artery is ligated with a suture. The thorax is closed and the animal recovers. Sham animals have the suture e passed through without ligation. One week prior to the surgery, animals to undergo infarction are divided into separate groups and drug treatment is begun. […] After six weeks, systolic and diastolic blood pressure, left ventricular end diastolic pressure, left ventricular dP/dt, and heart rate are evaluated. The hearts are removed, weighed, measured and fixed in formalin. Collagen content of heart sections are evaluated using computerized image analysis of picrosirius stained sections.

The target of another data set is T1, progesterone receptor (Homo sapiens, UniProt P06401).
T1 sequence (P06401 1-933): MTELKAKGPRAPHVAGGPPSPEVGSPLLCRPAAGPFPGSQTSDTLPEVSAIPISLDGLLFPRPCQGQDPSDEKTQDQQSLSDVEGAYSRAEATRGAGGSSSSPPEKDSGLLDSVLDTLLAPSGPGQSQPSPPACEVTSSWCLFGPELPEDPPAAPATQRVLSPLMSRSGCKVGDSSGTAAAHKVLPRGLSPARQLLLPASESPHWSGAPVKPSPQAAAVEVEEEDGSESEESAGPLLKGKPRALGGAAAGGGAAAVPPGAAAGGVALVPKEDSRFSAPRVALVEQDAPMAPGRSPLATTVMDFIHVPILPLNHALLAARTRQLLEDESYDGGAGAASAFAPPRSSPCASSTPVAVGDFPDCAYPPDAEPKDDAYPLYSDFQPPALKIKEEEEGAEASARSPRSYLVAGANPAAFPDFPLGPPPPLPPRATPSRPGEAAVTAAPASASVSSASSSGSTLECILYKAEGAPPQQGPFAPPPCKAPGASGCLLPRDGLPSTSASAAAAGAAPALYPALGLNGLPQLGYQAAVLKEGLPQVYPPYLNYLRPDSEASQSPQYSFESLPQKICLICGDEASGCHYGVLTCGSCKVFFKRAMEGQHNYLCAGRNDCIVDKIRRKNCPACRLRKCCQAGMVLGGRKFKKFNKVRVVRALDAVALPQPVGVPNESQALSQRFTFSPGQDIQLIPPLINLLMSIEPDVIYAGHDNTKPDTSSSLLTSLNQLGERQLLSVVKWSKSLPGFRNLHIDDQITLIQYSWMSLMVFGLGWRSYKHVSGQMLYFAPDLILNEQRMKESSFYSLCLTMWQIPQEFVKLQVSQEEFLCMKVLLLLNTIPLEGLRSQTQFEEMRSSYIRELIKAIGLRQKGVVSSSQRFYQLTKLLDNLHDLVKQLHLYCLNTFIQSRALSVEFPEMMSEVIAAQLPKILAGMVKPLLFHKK
The data set is described as follows: binding affinity for the progesterone receptor relative to spironolactone.

Data set [4] has as its system rats made hypertensive by renal artery clip. In words: Assay C: hypertensive rat model. The settings on record: combination of beta-adrenergic antagonist and eplerenone versus either component alone; 12 and 24 weeks. Type of data set: in vivo. The source says:
Male rats are made hypertensive by placing a silver clip with an aperture of 240 microns on the left renal artery, leaving the contralateral kidney untouched. Sham controls undergo the same procedure but without attachment of the clip. One week prior to the surgery, animals to be made hypertensive are divided into separate groups and drug treatment is begun. […] After 12 and 24 weeks, systolic and diastolic blood pressure, left ventricular end diastolic pressure, left ventricular dP/dt, and heart rate are evaluated. The hearts are removed, weighed, measured and fixed in formalin. Collagen content of heart sections are evaluated using computeried image analysis of picrosirius stained sections.

The mark [5] stands for this setting: CCB and eplerenone compared to CCB and placebo.
Setting [6] is: eight weeks, eplerenone and CCB versus CCB and placebo.

On to `CC(=O)S[C@@H]1CC2=CC(=O)CC[C@]2(C)[C@H]2CC[C@@]3(C)[C@@H](CC[C@@]34CCC(=O)O4)[C@H]12` [spironolactone], for which, in data set [1], the myocardial fibrosis result is given as “prevents myocardial fibrosis”.

As for `COC(=O)[C@@H]1CC2=CC(=O)CC[C@]2(C)[C@@]23O[C@@H]2C[C@@]2(C)[C@@H](CC[C@@]24CCC(=O)O4)[C@H]13` [eplerenone, Pregn-4-ene-7,21-dicarboxylic acid, 9,11-epoxy-17-hy-droxy-3-oxo-, γ-lactone, methyl ester, (7α, 11α, 17β)-], in data set [2] (setting [5]), the active renin levels entry is on record as “greater increase” and the aldosterone levels result is recorded as “greater increase”. Also, in data set [2] (setting [6]), the “change in mean diastolic blood pressure” value is reported as “greater for the dual therapy group, compared to monotherapy, but this difference did not reach statistical significance” and the systolic blood pressure result is “significant reduction”. Besides, the serious adverse events entry in data set [2] (eplerenone added to CCB therapy) was “no serious adverse events reported”. Further, in data set [3], the cardiac performance entry is “improvements in cardiac performance”. For the same molecule, the “binding affinity for the progesterone receptor, % that of spironolactone” value at progesterone receptor was “less than 1%”. In addition, the cardiac performance entry in data set [4] is listed as “improvments in cardiac performance”.
